Patent US20250152580A1, “METHODS FOR TREATING IMMUNE DISEASES” (Ascentage Pharma (Suzhou) co., Ltd., priority 2022, published 2025)
“Also recorded” adds a separate entry of the source.

Assays:
Type in all cases: in vivo
[1] = tested on: IMQ induced psoriasis model; experiment: IMQ induced psoriasis model in Balb/c mice; conditions: Cpd. 4 100 mg/kg po qd day 0-6
Description: Imiquimod (IMQ) is a ligand for TLRs (Toll-like receptors) of immune cells (including macrophages, monocytes and plasmacytoid dendritic cells), and therefore contributes to strong activation of the immune system.
Female Balb/c mice (7-8 weeks old) were obtained from B&K Universal Animal Co. Ltd. Animals were housed and handled in a temperature-controlled environment with a 12-h light/12-h dark cycle. A total of 36 mice were assigned to 4 groups by randomization based on body weight (6 mice in normal control group and 10 mice in other 3 groups).
At the beginning of the study on day 0, five groups were administered a daily topical dose of 80 mg of a cream preparation containing 5% IMQ on their hair-free backs to establish a model of IMQ-induced psoriasis for seven consecutive days. The G1 normal control group received appropriate vaseline.
Mice in Group 1 and Group 2 were treated with vehicle for 7 days (po, qd, from day 0 to day 6). Mice in Group 3 were treated with 100 mg/kg Cpd. 4 for 7 days (po, qd, from day 0 to day 6). Mice in Group 4 were treated with 30 mg/kg tofacitinib for 7 days (po, bid, from day 0 to day 6). The protocols and procedures involving the care and use of animals were approved by the Institutional Animal Care and Use Committee (IACUC) at KCI (Suzhou, China).
The severity of skin inflammation was monitored and graded using a modified human scoring system Psoriasis Area Severity Index (PASI). Scaling, thickness, and erythema were scored separately on a scale from 0 to 4:0, none; 1, slight; 2, moderate; 3, marked; and 4, very marked. The total score denotes severity of inflammation. Ear thickness of mice was measured every day from day 0 to day 7.
Ear thickness of mice was measured every day from day 0 to day 7. […] Compared with G1 normal control group, after IMQ treatment, ear swelling was observed indicated by increased ear thickness in G2 group reaching the maximal ear thickness to 0.40±0.02 mm on day 7. Cpd.

[2] = tested on: LPS inhalation induced lung neutrophils infiltration model; experiment: LPS inhalation induced neutrophils infiltration model in C57BL/6 mice; conditions: Cpd. 4 50 mg/kg oral each day, Cpd. X 50 mg/kg iv twice a week, Cpd. XI 12 mg/kg iv twice a week, week 4-10; compared with Vehicle
Protocol: C57BL/6 mice (6-8 weeks old) were obtained from Shanghai LC Laboratory Animal Co. Ltd. Animals, housed and handled in a temperature-controlled environment with a 12-h light/12-h dark cycle. A total of 60 female C57BL/6J mice will be modeled by atomization inhalation LPS 3 times a week for 10 weeks (adjustments may be made according to animal health status). LPS concentration is at 0.7 mg/mL. On each day of challenge, animals in G1 will receive aerosol inhalation of PBS and intravenous injection of Vehicle; animals in G2 will receive aerosol inhalation of LPS and intravenous injection of Vehicle; animals in G3 will be given aerosol inhalation of LPS and intravenous injection of 50 mg/kg Cpd. X twice a week (D1/4) from week 4-10; animals in G4 will be given aerosol inhalation of LPS and intravenous injection of 12 mg/kg Cpd.XI twice a week (D1/4) from week 4-10; animals in G5 will be given aerosol inhalation of LPS and oral administration of 50 mg/kg Cpd. 4 each day from week 4-10; animals in G6 will be given aerosol inhalation of LPS and oral administration of dexamethasone 1 hour before each challenge. Lungs will be gently lavaged via the tracheal cannula with 0.8 mL of PBS containing 1% BSA and 0.6 mM EDTA 48 hr after the last LPS exposure. The procedure will be repeated twice with 0.8 mL of PBS containing 1% BSA and 0.6 mM EDTA. The bronchoalveolar lavage fluid (BALF) will be centrifuged at 300×g for 5 min at 4° C., the cell pellet will be resuspended in 1.5 mL PBS. Total numbers of neutrophils in BALF will be counted using a hemocytometer.

OXA induced DTH model = experiment: OXA induced delayed type hypersensitivity (DTH) model in Balb/c mice
Description: A delayed-type hypersensitivity (DTH) reaction is an expression of cell-mediated immunity and plays a major role in the pathology and chronicity of many inflammatory disorders. Delayed-type hypersensitivity (DTH) reactions can be induced by allergens, including oxazolone.
Female Balb/c mice (6-8 weeks old) were obtained from Shanghai Jihui Experiment Animal Feeding Co. Ltd. Animals were housed and handled in a temperature-controlled environment with a 12-h light/12-h dark cycle. A total of 48 mice were assigned to 6 groups by randomization based on body weight.
To induce DTH, all right ears of mice except the G1 sham control group were applied with oxazolone (OXA). Briefly, skin inflammation was induced by topical administration with 100 μL of 1.5% OXA dissolved in acetone/olive oil on day 1 and repeated 20 μL of 1% OXA on day 6. G1 sham control group was treated same volume of vehicles. Therapeutic group of 100 mg/kg Cpd. 4 (po, 0 h/6 h after challenge on day 6) or 0.05 mg/ear dexamethasone (topical, 1 h/6 h after challenge on day 6) were applied to the mice. […]
Ear thickness were measured with a micrometer before challenge on day 6 and 24 h after oxazolone challenge on Day 7 and reported as the mean change in ear thickness. […]

O=C(NS(=O)(=O)c1ccc(NC[C@H]2COCCO2)c([N+](=O)[O-])c1)c1ccc(N2CCN(CC3=C(c4ccc(Cl)cc4)CC4(CCC4)CC3)CC2)cc1Oc1cnc2[nH]ccc2c1 [Cpd. 4, (S)-N-((4-(((1,4-dioxan-2-yl)methyl)amino)-3-nitrophenyl)sulfonyl)-2-((1H-pyrrolo[2,3-b]pyridin-5-yl)oxy)-4-(4-((6-(4-chlorophenyl)spiro[3.5]non-6-en-7-yl)methyl)piperazin-1-yl)benzamide]
ear thickness ([1]; compared with Vehicle (0.40±0.02 mm day 7) and tofacitinib 30 mg/kg po bid): significantly reducing the ear thickness; also recorded: comparable to that of tofacitinib; also recorded: significantly reduced
PASI score (Psoriasis Area Severity Index) ([1]; tofacitinib 30 mg/kg po bid, compared with Vehicle): significantly reducing the clinical PASI score; also recorded: significantly reduced
BALF neutrophils (infiltration in lung) [2]: significantly reducing the BALF neutrophils; also recorded: significantly reduced
increase of ear thickness (day 7 − day 6) (OXA induced DTH model; 100 mg/kg po 0 h/6 h after challenge on day 6, vehicle 0.24±0.01 mm): 0.22±0.03 mm
increase of ear thickness (in words) (OXA induced DTH model; Cpd. 4 100 mg/kg po, dexamethasone 0.05 mg/ear topical 1 h/6 h after challenge on day 6): moderately reduced
